Reference: patent US7128926B2, “Ester compound and use thereof” (Incorporated Administrative Agency, National Agriculture …, priority 2002, dated 2006)

System: adult males of Pseudococcus cryptus
Test: Biological assay of attracting activity using Petri dish (Table 1)
Assay type: in vivo
Experimental: Biological Assay of Attracting Activity Using Petri Dish […] First, two square filter papers with an area of 1 cm^2 were placed on a Petri dish with a diameter of 90 mm. Thereafter, one paper was impregnated with each of sample solutions (shown in Tables 1 and 2) (100 μl of a stock solution in the case of each fraction shown in Table 1 and a crude extract shown in Table 2, and 10 μl of a stock solution in the case of an acetylated product shown in Table 2), and it was defined as a treated group. The other paper was impregnated with only a solvent (100 μl), and it was defined as a control group. […] The Petri dish was then capped. Approximately 10 to 60 minutes later, when the movement of the males stopped, the presence or absence of attracting activity was confirmed from the ratio of males attracted to each filter paper.

C=C(C)CC(=O)OCC1CC(C(=C)C)C1(C)C (stereo not shown) [formula (I), 3-isopropenyl-2,2-dimethylcyclobutylmethyl 3-methyl-3-butenoate]
attracting activity towards adult males of Pseudococcus cryptus (in words): activity of attracting adult males of Pseudococcus cryptus
